{
  "source": "patent US10239890B2",
  "about": "“Broad spectrum beta-lactamase inhibitors” (Gladius Pharmaceuticals Corporation, priority 2007, dated 2019)",
  "key": {"[1]": {"target": "T1, beta-lactamase from Enterobacter cloacae (Enterobacter cloacae, UniProt P05364)", "T1 construct": "purchased Sigma-Aldrich, St. Louis, Mo", "T1 sequence (P05364 21-381)": "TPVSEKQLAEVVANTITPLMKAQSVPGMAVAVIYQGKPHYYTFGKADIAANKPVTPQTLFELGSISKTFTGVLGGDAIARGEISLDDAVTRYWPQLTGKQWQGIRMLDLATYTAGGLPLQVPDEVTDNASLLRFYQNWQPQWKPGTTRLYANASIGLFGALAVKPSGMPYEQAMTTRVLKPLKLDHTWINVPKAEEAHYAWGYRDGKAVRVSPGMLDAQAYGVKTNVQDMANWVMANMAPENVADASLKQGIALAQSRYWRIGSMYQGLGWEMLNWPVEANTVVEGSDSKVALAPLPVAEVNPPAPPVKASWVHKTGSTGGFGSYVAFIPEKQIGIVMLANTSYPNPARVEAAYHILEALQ", "experiment": "Time dependent inhibition of beta-lactamase, with dialysis to test for return of activity", "format": "biochemical", "conditions": "10 mL 0.1 units/mL beta-lactamase with and without 500 microM inhibitor, dialysed against 1 L 0.1 M sodium phosphate buffer (pH 7.0) with one exchange"}, "[2]": {"target": "T1, beta-lactamase from Enterobacter cloacae", "experiment": "Assay (I) for beta-lactamase activity (Cefesone hydrolysis, absorbance at 486 nm), product inhibition", "format": "biochemical", "conditions": "Cefesone substrate", "method": "A chromogenic cephalosporin, Cefesone, is synthesized and isolated as described by Sutton et al. and used to monitor p-lactamase activity. A typical assay monitors the hydrolysis of Cefesone via the formation of a species which absorbs at 486 nm (molar absorptivity constant 16,000). Absorption is monitored as a function of time in 0.1 M, pH 7.0 sodium phosphate, 0.2 mM Cefesone and 4 volume percent DMSO cosolvent at 30° C. using a Beckman DU-40 spectrophotometer having a circulating water bath attached to the cuvette holder. The assay is initiated by addition and mixing of an appropriate amount of beta-lactamase.\nThe beta-lactamase assay using enzyme fro Enterobacter cloacae (Sigma-Aldrich, St. Louis, Mo.) was carried out as in Example 1 (assay I) above with compound 2. After the initial rate was determined the reaction was allowed to continue for two hours. Theoretical maximal absorbance at 486 nm is approximately 1.6 while the observed final absorbance was consistently 0.26.\nwhere E is enzyme, S is substrate, P is product, ES is the enzyme-substrate complex, EP is the enzyme product complex, and k1, k−1, k2, and k−2 are rate constants and kcat is the catalytic rate constant. In the case of product inhibition k−2 is large with respect to k2, so as enzyme product accumulates, more enzyme is tied up in the enzyme-product complex and is unavailable for catalysis."}},
  "data": [
    {"compound": "O=C(Cc1ccccc1)NC1C(=O)N2C(C(=O)O)=C(/C=C/C3CC3)CSC12", "note": "(stereo not shown) [compound 2, 3-vinylcyclopropane-7-(2-phenylacetamido)-3-Cephem-4-carboxylic acid]", "values": [
      {"measurement": "return of beta-lactamase activity after dialysis", "setting": "[1]", "value": "no return of activity"},
      {"measurement": "observed final absorbance at 486 nm", "setting": "[2]; reaction continued for two hours after the initial rate, theoretical maximal absorbance approximately 1.6", "value": 0.26},
      {"measurement": "type of inhibition inferred from final absorbance", "setting": "[2]; reaction continued for two hours", "value": "consistent with product inhibition"}
    ]},
    {"compound": "O=C(Cc1ccccc1)NC1C(=O)N2C(C(=O)O)=C(/C=C/c3ccc(CBr)cc3)CSC12", "note": "(stereo not shown) [compound 4, 3-(1-bromomethyl-4-vinylbenzene)-7-(2-phenylacetamido)-3-Cephem-4-carboxylic acid]", "values": [
      {"measurement": "return of beta-lactamase activity after dialysis", "setting": "[1]", "value": "no return of activity"}
    ]}
  ]
}
